Experimental data: US10617656B2, “Methods of increasing the cytotoxicity of chemotherapeutic agents with multisubstrate inhibitors of histone, protein-Lys, polyamine acetylation, and polyamine metabolism” (Vanderbilt University, priority 2010, dated 2020)

Assays:
[1] = tested on: histone H3 lysine 9 acetylation in H358 cells; experiment: Western analysis of histone H3 acetylation/methylation in H358 cells; assay type: cell-based; settings: 50 μM, 12 hours
Protocol: (A) Structures of 1a, and the acetylated side chain of a lysine residue within the polypeptide chain of a protein targeted by the acetylating enzyme (R1 and R2 are the main chain elements on both sides of the lysyl residue). (B) [^3H]-thymidine incorporation into DNA of H358 cells pulsed for 6 hrs at three different time points after the addition of increasing concentrations of 1a, i.e., at 6-12 hrs (12 hr curve), at 18-24 hours (24 hr curve), or at 42-48 hrs (48 hr curve). Incorporation is represented as a percentage relative to control (untreated) cells. (C) Cell cycle analysis of propidium iodide-stained cells harvested at various times after addition of 50 μM 1a. % of cells in G1, S, and G2 represents the average of two independent profiles. (D) Western analysis of histone H3 lysine 9 acetylation, histone H3 lysine 56 acetylation, histone H3 lysine 9 methylation, and total histone H3, before “c” or at the indicated times after addition of 50 μM 1a. Each lane represents 60 μg cellular protein.
Each lane represents 175 μg cell lysate protein.
One 6 cm culture dish of H358 cells per treatment was used. Cells were treated with 50 μM spm-2, spm-3, or spd-3a for 12 hours. Histones were extracted from cells in 0.2M H2SO4 (as described in Furuta, T., et al (2003) J. Biol. Chem. 278: 20303-20312), followed by SDS-PAGE and Western blotting. Blots were probed with anti-acetyl histone H3-lysine 9 (Upstate Biotechnology, Inc.)
Cells were lysed by adding 1 mL of 0.2 M H2SO4. […]
One 10-cm plate of H358 lung cancer cells (about 2×10^6 cells), grown in DMEM+10% Fetal bovine serum as described in reference, were treated for 24 hours with 50 μM 1a inhibitor. […] Treated cells and untreated (control) cells were harvested by lysing in buffer containing 10 mM Hepes pH 7.5, 100 mM NaCl, 300 mM sucrose, 3 mM MgCl2, 1 mM EDTA, 1 mM DTT, 0.5% Triton X-100, 1 mM PMSF, protease inhibitor pellet (Roche) and analyzed on 10% SDS-PAGE gels, followed by Western immunoblot analysis of total histone H3, methylated histone H3 (methylated on lysine 9), and acetylated histone H3 (acetylated on lysine 9). […]

[2] = tested on: DLD-1 colon cancer cells; experiment: 96-well MTS viability assay, DLD-1; assay type: cell-based; settings: single agent, 3 days
Protocol: Cells were plated in 96-well plates at 2000 cells per well and treated with the indicated doses of spd-3a. Cell viability was measured by the MTS assay 3 days later.
DLD-1 cells or H358 cells were plated in 96-well plates at 2000 cells per well and treated with the indicated doses of (A) spm-3 or (B) spm-2. (C) Cell viability was measured by the MTS assay 3 days later. Similar experiment using GT41 fibroblasts with spm2 or spm 3. Each assay point represents an average of duplicates.

With `CC(=O)NCCSCC(=O)NCCCNCCCCNCCCN` [spm-3] the “histone H3K9 acetylation (Western)” value [1] was “suppress histone acetylation” and the “suppression of cancer cell growth and viability” value [2] was “effective as single agents”.
